# How the values were obtained:
# Type in all cases: cell-based
# A2780 (ovarian) cells = test: Anti-proliferative activity, Cell-Titre luminescent viability assay; settings: Homo sapiens, 72 h exposure, Cell-Titre luminescent reagent
# Experimental: (§1) The ability of compounds of the disclosure to inhibit the proliferation of cancer cells representative of non-small cell lung cancer and ovarian cancer (Table 1), and pancreatic cancer, colorectal cancer and prostate cancer (Table 2) was assessed. Briefly, a predetermined number of cells as calculated from cell growth assays for each of the cell lines employed were seeded into their respective culture medium (using ATCC culture parameters—http://www.atcc.org) and cultured for 24 h at 37° C. and 5% CO2 in 96-well culture plates. Once attached, each cell line was then exposed to various concentrations of each respective analogue (100, 30, 10, 3, 1 and 0.3 µM or 30, 10, 3, 1, 0.3 and 0.1 μM), cultured for a further 72 h and exposed to Cell-Titre luminescent reagent (100 μL/well) for a further 30 min. Luminescence was captured using an EnVision multilabel reader and the data for each analogue concentration compared against no treatment control. Cell viability was normalised to control (vehicle alone) and dose response curves, and half maximal effective concentration (EC50) values were determined using Graph Pad Prism 6 (nonlinear regression sigmoidal dose-response variable slope).
# A549 (NSCLC) cells = test: as above; settings: Homo sapiens, 72 h exposure, Cell-Titre luminescent reagent
# Experimental: as §1
# [1] = tested on: SK-N-SH neuroblastoma cells; test: Cytotoxicity assay, MTS viability; settings: Homo sapiens, 72 hours
# Experimental: The ability of compounds of the disclosure to inhibit the proliferation of SK—N—SH neuroblastoma cells was assessed. The SK—N—SH cell line was maintained as a monolayer in Dulbeccos Modified Eagles medium (DMEM) supplemented with 10% foetal bovine serum (FBS) and grown at 37° C. in a humidified atmosphere with 5% CO2. For the cytotoxicity assay, SK—N—SH cells were seeded at a density of 2×10^3 cells per well in 96-well plates. The cells were treated with serial dilutions of the test compounds (1:2 starting concentration 100 µM) and viability measured after 72 hours using a standard MTS assay. Cell viability was normalised to control (vehicle alone) and dose response curves and EC50 values (Table 3) were determined using Graph Pad Prism 6.
SMILES,IC50 (A2780 (ovarian) cells),IC50 (A549 (NSCLC) cells),IC50 [1]
"CCC(C)c1ccc(NC(=O)C2CCN(S(=O)(=O)c3ccn(C)c3)CC2)cc1 (stereo not drawn) [Compound 28, N-(4-(sec-butyl)phenyl)-1-((1-methyl-1H-pyrrol-3-yl)sulfonyl)piperidine-4-carboxamide]",24.7 µM,13 µM,11.7 µM
"Cn1cc(S(=O)(=O)N2CCC(C(=O)Nc3ccc(C(F)(F)F)cc3)CC2)cc1C(N)=O [Compound 2, 1-((5-carbamoyl-1-methyl-1H-pyrrol-3-yl)sulfonyl)-N-(4-(trifluoromethyl)phenyl)piperidine-4-carboxamide]",13.9 µM,33.7 µM,26.4 µM
"Cn1cc(S(=O)(=O)N2CCN(C(=O)Nc3ccc(C(F)(F)F)cc3)CC2)cc1C(N)=O [Compound 11, 4-((5-carbamoyl-1-methyl-1H-pyrrol-3-yl)sulfonyl)-N-(4-(trifluoromethyl)phenyl)piperazine-1-carboxamide]",48.4 µM,> 100 µM,> 100 µM
"O=C(Nc1ccccc1C(F)(F)F)c1ccn(S(=O)(=O)c2ccc3[nH]ccc3c2)c1 [Compound 47, 1-((1H-indol-5-yl)sulfonyl)-N-(2-(trifluoromethyl)phenyl)-1H-pyrrole-3-carboxamide]",1.6 µM,2.3 µM,27.8 µM
"CCCc1ccc(NC(=O)c2ccn(S(=O)(=O)c3ccc4[nH]ccc4c3)n2)cc1 [Compound 109, 1-((1H-indol-5-yl)sulfonyl)-N-(4-propylphenyl)-1H-pyrazole-3-carboxamide]",8.65 µM,5.53 µM,11 µM

# Continued, in another order:
IC50 (A2780 (ovarian) cells),IC50 (A549 (NSCLC) cells),SMILES,IC50 [1]
4.3 µM,5.8 µM,"CC(C)c1ccc(NC(=O)c2ccn(S(=O)(=O)c3ccc4[nH]ccc4c3)c2)cc1 [Compound 37, 1-((1H-indol-5-yl)sulfonyl)-N-(4-isopropylphenyl)-1H-pyrrole-3-carboxamide]",10.8 µM
3.9 µM,3.9 µM,"CCC(C)c1ccc(NC(=O)c2ccn(S(=O)(=O)c3ccc4[nH]c(C)cc4c3)c2)cc1 (stereo not drawn) [Compound 57, N-(4-(sec-butyl)phenyl)-1-((2-methyl-1H-indol-5-yl)sulfonyl)-1H-pyrrole-3-carboxamide]",7.22 µM
4.1 µM,6.3 µM,"O=C(Nc1cccc(F)c1)c1ccn(S(=O)(=O)c2ccc3[nH]ccc3c2)c1 [Compound 49, 1-((1H-indol-5-yl)sulfonyl)-N-(3-fluorophenyl)-1H-pyrrole-3-carboxamide]",15.4 µM
6.7 µM,5.4 µM,"CC(C)c1cccc(NC(=O)c2ccn(S(=O)(=O)c3ccc4[nH]ccc4c3)c2)c1 [Compound 38, 1-((1H-indol-5-yl)sulfonyl)-N-(3-isopropylphenyl)-1H-pyrrole-3-carboxamide]",12 µM
2.5 µM,8.7 µM,"Cc1cccc(NC(=O)c2ccn(S(=O)(=O)c3ccc4[nH]ccc4c3)c2)c1 [Compound 44, 1-((1H-indol-5-yl)sulfonyl)-N-(m-tolyl)-1H-pyrrole-3-carboxamide]",15.2 µM
8.53 µM,16.6 µM,"O=C(Nc1ccc(F)c(F)c1)c1ccn(S(=O)(=O)c2ccc3[nH]ccc3c2)c1 [Compound 68, 1-((1H-indol-5-yl)sulfonyl)-N-(3,4-difluorophenyl)-1H-pyrrole-3-carboxamide]",19.1 µM
3.8 µM,3.9 µM,"CCC(C)c1ccc(NC(=O)c2ccn(S(=O)(=O)c3cnc4[nH]ccc4c3)c2)cc1 (stereo not drawn) [Compound 60, 1-((1H-pyrrolo[2,3-b]pyridin-5-yl)sulfonyl)-N-(4-(sec-butyl)phenyl)-1H-pyrrole-3-carboxamide]",13.2 µM
7.49 µM,9.28 µM,"O=C(Nc1ccc(Cl)c(Cl)c1)c1ccn(S(=O)(=O)c2ccc3[nH]ccc3c2)c1 [Compound 71, 1-((1H-indol-5-yl)sulfonyl)-N-(3,4-dichlorophenyl)-1H-pyrrole-3-carboxamide]",8.9 µM
